This note sets out measurements from US20050197350A1, “Novel quinoline, tetrahydroquinazoline, and pyrimidine derivatives and methods of treatment related to the use thereof” (TAISHO PHARMACEUTICAL CO., LTD., priority 2003, published 2005).

The first assay concerns MCH receptors. As to the kind of experiment: MCH receptor activity class (method not given). The conditions noted are these: MCH receptor activity class 1-3 (percent of control at 10^-7 M or IC50).
For the compound `Cc1cccc([N+](=O)[O-])c1NC(=O)NC[C@H]1CC[C@@H](Nc2nccc(N(C)C)n2)CC1` [compound 2447, N-[(cis-4-{[4-(dimethylamino)pyrimidin-2-yl]amino}cyclohexyl)methyl]-N′-(2-methyl-6-nitrophenyl)urea], the class is recorded as 2 (Class 2: The value of percent of control at 10^−7 M was from 40% to 60% or the value of IC′50 was from 50 nM to 200 nM.).

The assay is the same for the next values; noted with them: MCH receptor; class by percent of control at 10^-7 M or IC50.
Consider `CN(C)c1cc(N[C@H]2CC[C@@H](NC(=O)c3ccc4nonc4c3)CC2)nc2ccccc12` [compound 23, N-(cis-4-{[4-(dimethylamino)quinolin-2-yl]amino}cyclohexyl)-2,1,3-benzoxadiazole-5-carboxamide], for which the class is 1 (Class 1: The value of percent of control at 10^−7 M was less than 40% or the value of IC50 was less than 50 nM.).
With `CN(C)c1nc(N[C@H]2CC[C@@H](NC(=S)Nc3cccc(I)c3)CC2)nc2c1CCCC2` [compound 1985], the class is 3 (Class 3 The value of percent of control at 10^−7 M was more than 60% or the value of IC50 was more than 200 nM.).
As for `CN(C)c1cc(N[C@H]2CC[C@@H](NC(=O)c3cccc(F)c3)CC2)nc2ccccc12` [compound 105, N-(cis-4-{[4-(dimethylamino)quinolin-2-yl]amino}cyclohexyl)-3-fluorobenzamide], the class is on record as 2 (Class 2: The value of percent of control at 10^−7 M was from 40% to 60% or the value of IC′50 was from 50 nM to 200 nM.).
Regarding `Cc1nn(-c2ccccc2)nc1C(=O)N[C@H]1CC[C@@H](Nc2cc(N(C)C)c3ccccc3n2)CC1` [compound 107, N-(cis-4-{[4-(dimethylamino)quinolin-2-yl]amino}cyclohexyl)-5-methyl-2-phenyl-2H-1,2,3-triazole-4-carboxamide], the class is given as 2 (Class 2: The value of percent of control at 10^−7 M was from 40% to 60% or the value of IC′50 was from 50 nM to 200 nM.).
Still for that read-out and setting: the same measure for `CN(C)c1nc(N[C@H]2CC[C@@H](NC(=S)Nc3ccc(OC(F)F)cc3)CC2)nc2c1CCCC2` [compound 1987]: 3 (Class 3 The value of percent of control at 10^−7 M was more than 60% or the value of IC50 was more than 200 nM.).

The same assay, now with this note: activity class 1-3: percent of control at 10^-7 M or IC50.
As for `CCCCCCCCOC(=O)NC[C@H]1CC[C@@H](Nc2cc(N(C)C)c3ccccc3n2)CC1` [compound 1566], the class is 3 (Class 3 The value of percent of control at 10^−7 M was more than 60% or the value of IC50 was more than 200 nM.).
On the same count and under the same terms, the same measure for `CN(C)c1ccnc(N[C@H]2CC[C@@H](NCCc3cccc(Cl)c3)CC2)n1` [compound 1514]: 3 (Class 3 The value of percent of control at 10^−7 M was more than 60% or the value of IC50 was more than 200 nM.); for `CN(C)c1ccnc(N[C@H]2CC[C@@H](NC[C@@H](COCc3ccccc3)OCc3ccccc3)CC2)n1` [compound 1521]: 3 (Class 3 The value of percent of control at 10^−7 M was more than 60% or the value of IC50 was more than 200 nM.).

Staying with this assay, now noted: activity class per percent of control at 10^-7 M or IC50.
`CCOc1cc(CNC[C@H]2CC[C@@H](Nc3cc(N(C)C)c4ccccc4n3)CC2)ccc1OC` [compound 1134]: the class is given as 3 (Class 3 The value of percent of control at 10^−7 M was more than 60% or the value of IC50 was more than 200 nM.).
For `COc1ccccc1/C=C/CN[C@H]1CC[C@@H](Nc2cc(N(C)C)c3ccccc3n2)CC1` [compound 1112], the class is on record as 3 (Class 3 The value of percent of control at 10^−7 M was more than 60% or the value of IC50 was more than 200 nM.).
Still for that read-out and setting: with `CN(C)c1cc(N[C@H]2CC[C@@H](NCc3coc4ccc(Cl)cc4c3=O)CC2)nc2ccccc12` [compound 1113] the figure was 3 (Class 3 The value of percent of control at 10^−7 M was more than 60% or the value of IC50 was more than 200 nM.).

Staying with this assay, now noted: class 1-3 by percent of control at 10^-7 M or IC50.
Take `CN(C)c1ccnc(N[C@H]2CC[C@@H](CNC(=O)c3ccccc3I)CC2)n1` [compound 440]: the class was 3 (Class 3 The value of percent of control at 10^−7 M was more than 60% or the value of IC50 was more than 200 nM.).
In the case of `Cc1ccc(C(=O)N[C@H]2CC[C@@H](Nc3nc4c(c(N(C)C)n3)CCCC4)CC2)cc1[N+](=O)[O-]` [compound 479], the class is listed as 1 (Class 1: The value of percent of control at 10^−7 M was less than 40% or the value of IC50 was less than 50 nM.).
Same read-out and setting: the same measure for `CN(C)c1nc(N[C@H]2CC[C@@H](NC(=O)c3ccc(Br)cc3)CC2)nc2c1CCCC2` [compound 458]: 2 (Class 2: The value of percent of control at 10^−7 M was from 40% to 60% or the value of IC′50 was from 50 nM to 200 nM.); for `CN(C)c1nc(N[C@H]2CC[C@@H](NC(=O)c3ccc4c(c3)OCO4)CC2)nc2c1CCCC2` [compound 483]: 3 (Class 3 The value of percent of control at 10^−7 M was more than 60% or the value of IC50 was more than 200 nM.).

The same assay, now with this note: class by percent of control at 10^-7 M or IC50.
For `Cc1onc(-c2c(Cl)cccc2Cl)c1C(=O)N[C@H]1CC[C@@H](Nc2nccc(N(C)C)n2)CC1` [compound 352, 3-(2,6-dichlorophenyl)-N-(cis-4-{[4-(dimethylamino)pyrimidin-2-yl]amino}cyclohexyl)-5-methylisoxazole-4-carboxamide], the class is on record as 1 (Class 1: The value of percent of control at 10^−7 M was less than 40% or the value of IC50 was less than 50 nM.).
The same measure, in the same setting: the same measure for `Cc1ccc(NC(=O)N[C@H]2CC[C@@H](Nc3nc4c(c(N(C)C)n3)CCCC4)CC2)cc1Cl` [compound 1841]: 3 (Class 3 The value of percent of control at 10^−7 M was more than 60% or the value of IC50 was more than 200 nM.); for `CCCSc1ncccc1C(=O)NC[C@H]1CC[C@@H](Nc2nc3c(c(N(C)C)n2)CCCC3)CC1` [compound 646]: 1 (Class 1: The value of percent of control at 10^−7 M was less than 40% or the value of IC50 was less than 50 nM.).
As for `CN(C)c1nc(N[C@H]2CC[C@@H](NC(=O)Cc3ccc(F)cc3Cl)CC2)nc2c1CCCC2` [compound 951, 2-(2-chloro-4-fluorophenyl)-N-(cis-4-{[4-(dimethylamino)-5,6,7,8-tetrahydroquinazolin-2-yl]amino}cyclohexyl)acetamide], the class is 1 (Class 1: The value of percent of control at 10^−7 M was less than 40% or the value of IC50 was less than 50 nM.).
Take `CN(C)c1ccnc(N[C@H]2CC[C@@H](CNC(=O)/C=C/c3cccc([N+](=O)[O-])c3)CC2)n1` [compound 934]: the class was 1 (Class 1: The value of percent of control at 10^−7 M was less than 40% or the value of IC50 was less than 50 nM.).
The same measure, in the same setting: the same measure for `CN(C)c1ccnc(N[C@H]2CC[C@@H](CNC(=O)Cc3ccccc3OC(F)(F)F)CC2)n1` [compound 945]: 1 (Class 1: The value of percent of control at 10^−7 M was less than 40% or the value of IC50 was less than 50 nM.).
With `COc1cc(NC(=O)N[C@H]2CC[C@@H](Nc3nc4c(c(N(C)C)n3)CCCC4)CC2)cc(OC)c1OC` [compound 1719], the class is 1 (Class 1: The value of percent of control at 10^−7 M was less than 40% or the value of IC50 was less than 50 nM.).
Still for that read-out and setting: the same measure for `COc1ccc(OC)c(CN[C@H]2CC[C@@H](Nc3nccc(N(C)C)n3)CC2)c1` [compound 1208]: 3 (Class 3 The value of percent of control at 10^−7 M was more than 60% or the value of IC50 was more than 200 nM.); for `COc1cccc(CN[C@H]2CC[C@@H](Nc3nccc(N(C)C)n3)CC2)c1` [compound 1224]: 3 (Class 3 The value of percent of control at 10^−7 M was more than 60% or the value of IC50 was more than 200 nM.).
For the compound `COc1cccc(CC(=O)NC[C@H]2CC[C@@H](Nc3nc4c(c(N(C)C)n3)CCCC4)CC2)c1` [compound 629], the class is 3 (Class 3 The value of percent of control at 10^−7 M was more than 60% or the value of IC50 was more than 200 nM.).
The same measure, in the same setting: the same measure for `CC(=O)c1cccc(NC(=O)N[C@H]2CC[C@@H](Nc3nc4c(c(N(C)C)n3)CCCC4)CC2)c1` [compound 1806]: 3 (Class 3 The value of percent of control at 10^−7 M was more than 60% or the value of IC50 was more than 200 nM.); for `CN(C)c1ccnc(N[C@H]2CC[C@@H](NC(=O)COc3c(F)c(F)c(F)c(F)c3F)CC2)n1` [compound 340, N-(cis-4-{[4-(dimethylamino)pyrimidin-2-yl]amino}cyclohexyl)-2-(pentafluorophenoxy)acetamide]: 2 (Class 2: The value of percent of control at 10^−7 M was from 40% to 60% or the value of IC′50 was from 50 nM to 200 nM.).
Same read-out and setting: with `Cc1cccc(NC(=S)N[C@H]2CC[C@@H](Nc3nc4c(c(N(C)C)n3)CCCC4)CC2)c1C` [compound 1779] the figure was 3 (Class 3 The value of percent of control at 10^−7 M was more than 60% or the value of IC50 was more than 200 nM.).
In the case of `CN(C)c1ccnc(N[C@H]2CC[C@@H](NC(=S)Nc3cccc4ccccc34)CC2)n1` [compound 2264], the class is given as 3 (Class 3 The value of percent of control at 10^−7 M was more than 60% or the value of IC50 was more than 200 nM.).
Turning to `CN(C)c1ccnc(N[C@H]2CC[C@@H](NC(=O)NCc3ccc(Br)cc3)CC2)n1` [compound 2243], the class is 3 (Class 3 The value of percent of control at 10^−7 M was more than 60% or the value of IC50 was more than 200 nM.).
The same measure, in the same setting: the same measure for `CN(C)c1nc(N[C@H]2CC[C@@H](CNC(=O)c3ccccc3SC(F)F)CC2)nc2c1CCCC2` [compound 644]: 3 (Class 3 The value of percent of control at 10^−7 M was more than 60% or the value of IC50 was more than 200 nM.).

Still in this assay, the particulars now being: class by percent of control at 10^−7 M or IC50.
Take `Cc1cc(N(C)C)nc(N[C@H]2CC[C@@H](C(=O)NCc3ccccc3)CC2)n1` [compound 2798, cis-N-benzyl-4-{[4-(dimethylamino)-6-methylpyrimidin-2-yl]amino}cyclohexanecarboxamide]: the class is given as 2 (Class 2: The value of percent of control at 10^−7 M was from 40% to 60% or the value of IC′50 was from 50 nM to 200 nM.).
For the compound `Cc1cnc(N[C@H]2CC[C@@H](CNC(=O)c3ccc(Cl)cc3)CC2)nc1N(C)C` [compound 2710, 4-chloro-N-[(cis-4-{[4-(dimethylamino)-5-methylpyrimidin-2-yl]amino}cyclohexyl)methyl]benzamide], the class is reported as 2 (Class 2: The value of percent of control at 10^−7 M was from 40% to 60% or the value of IC′50 was from 50 nM to 200 nM.).
